Patent US8741942B2, “Inhibitors of cellular necrosis” (President and Fellows of Harvard College, priority 2003, dated 2014)
Where a name gives a salt, the structure may show the parent alone.

tested on: human Jurkat T cells challenged with Fas ligand and treated with zVAD; experiment: Anti-necrotic activity, human Jurkat T cells challenged with Fas ligand and treated with zVAD; type: cell-based; details: viability after 36 h by CellTiter ATP assay, read-out: EC50 (μM) for cell viability
From the text: (§1) After a cell receives an initial assault either apoptotic, necrotic, or both apoptotic and necrotic mechanisms of cell death may be activated. The present example focuses on the necrosis pathway. Several chemical assaults were used to induce cell death, including exposure to tumor necrosis factor alpha (TNF-α), Fas ligand or β-amyloid protein. Various cell types were also used, including human neuroblastoma cells (SH-SY5Y) and human Jurkat T cells. In order to block the apoptosis mechanism, a general caspase inhibitor, N-benzyloxycarbonyl-valine-alanine-aspartic acid-(OMe) fluoromethyl ketone (zVAD, Polyerino, A. J.; Patterson, S. D. J. Biol. Chem. 1997, 272, 7013-7021), was used. […] Resulting cell death occurs by a necrosis-like mechanism (Holler, N., et al. Nature Immunol. 2000, 1, 489-495; Kawahara, A., et al. J. Cell Biol. 1998, 143, 1353-1360). Experimental compounds were applied to the cells in attempts to rescue them from this necrotic death. Therefore, compounds found to restore cell viability using this protocol are inhibitors of the necrosis pathway.
Compounds were also tested in another necrosis assay utilizing human Jurkat T cells, Fas ligand to induce cell death, and zVAD to inhibit the apoptosis pathway. After 36 h, cell viability was measure by the commercial CellTiter ATP cell viability assay (Promega).
Compounds were screened for anti-necrotic activity utilizing human Jurkat T cells challenged with Fas ligand and treated with zVAD to inhibit the apoptosis pathway.

SMILES	EC50 [µM]
CN1C(=O)C(Cc2csc3ccccc23)NC1=S (centres unmarked) [Compound 893-21, 5-Benzo[b]thiophen-3-ylmethyl-3-methyl-2-thioxo-imidazolidin-4-one]	8
CN1C(=O)C(Cc2c[nH]c3cc(F)ccc23)NC1=S (centres unmarked) [Compound 893-05, 5-(6-Fluoro-1H-Indol-3-ylmethyl)-3-methyl-2-thioxo-imidazolidin-4-one]	2.3
CN1C(=O)C(Cc2c[nH]c3ccccc23)NC1=S (centres unmarked) [Compound 893-01, 5-(1H-Indol-3-ylmethyl)-3-methyl-2-thioxo-imidazolidin-4-one]	6
CN1C(=O)C(Cc2c[nH]c3c(Br)cccc23)NC1=S (centres unmarked) [Compound 893-12, 5-(7-Bromo-1H-indol-3-ylmethyl)-3-methyl-2-thioxo-imidazolidin-4-one]	1.8
CN1C(=O)C(Cc2c[nH]c3c(Cl)cccc23)NC1=S (centres unmarked) [Compound 893-10, 5-(7-Chloro-1H-indol-3-ylmethyl)-3-methyl-2-thioxo-imidazolidin-4-one]	1.5
CN1C(=O)C(Cc2c[nH]c3c(F)cccc23)NC1=S (centres unmarked) [Compound 893-09, 5-(7-Fluoro-1H-Indol-3-ylmethyl)-3-methyl-2-thioxo-imidazolidin-4-one]	4
COc1cccc2c(CC3NC(=S)N(C)C3=O)c[nH]c12 (centres unmarked) [Compound 893-13, 5-(7-Methoxy-1H-indol-3-ylmethyl)-3-methyl-2-thioxo-imidazolidin-4-one]	10.3
CN1C(=O)C(Cc2c[nH]c3cc(Cl)ccc23)NC1=S (centres unmarked) [Compound 893-11, 5-(6-Chloro-1H-indol-3-ylmethyl)-3-methyl-2-thioxo-imidazolidin-4-one]	67
CN1C(=O)NC(Cc2c[nH]c3ccccc23)C1=O (centres unmarked) [Compound 893-20, 3-Methyl-5-(1H-indol-3-ylmethyl)-imidazolidine-2,4-dione]	6
CCN1C(=O)NC(Cc2c[nH]c3ccccc23)C1=O (centres unmarked) [Compound 893-04, 3-Ethyl-5-(1H-indol-3-ylmethyl)-imidazolidine-2,4-dione]	10
CN1C(=O)C(Cc2cn(C)c3ccccc23)NC1=S (centres unmarked) [Compound 893-08, 3-Methyl-5-(1-methyl-1H-Indol-3-ylmethyl)-2-thioxo-imidazolidin-4-one]	35

tested on: human FAD-deficient Jurkat T cells challenged with human TNF-alpha; experiment: Anti-necrotic activity, FADD-/- Jurkat T cells challenged with human TNF-alpha; type: cell-based; details: 10 ng/ml human TNFα, 30 hours, CellTiter-Glo ATP assay, read-out: EC50 (μM) for cell viability
Description: Compounds were screened for anti-necrotic activity utilizing human FAD-deficient Jurkat T cells challenged with human TNF-alpha. FADD−/− Jurkat cells (Juo P, et al. Cell Growth Differ. 1999, 10(12):797-804) were seeded at the density of 5*10^5 cells/mL into 96 well white plates (Costar) at 100 μL/well. Cells were treated in duplicate with various concentrations of test compounds in the presence or absence of 10 ng/ml human TNFα (Cell Sciences). After 30 hours viability of the cells was determined using luminescent ATP-based cell viability assay (CellTiter-Glo, Promega). Percentage of protection by the compound was calculated as a ratio of the cps (counts per second) value in the well treated with the test compound and TNFα to the cps value in the well treated with the compound alone.

SMILES	EC50 [µM]
Cc1cccc2c(CC3NC(=O)N(C)C3=O)c[nH]c12 (centres unmarked) [Compound 893-38]	> 10
Cc1cccc2c(CC3NC(=O)N(C)C3=O)c[nH]c12 (centres unmarked) [Compound 893-23]	0.095

same assay, conditions: Homo sapiens, Jurkat, 30 h, 10 ng/ml human TNFα, CellTiter-Glo ATP assay, read-out: EC50 (μM) for cell viability

SMILES	EC50 [µM]
CN1C(=O)C(Cc2csc3ccccc23)NC1=S (centres unmarked) [Compound 893-21, 5-Benzo[b]thiophen-3-ylmethyl-3-methyl-2-thioxo-imidazolidin-4-one]	0.845
CN1C(=O)N[C@@H](Cc2c[nH]c3c(Cl)cccc23)C1=O [Compound 893-31]	0.303
CN1CC(Cc2c[nH]c3c(Cl)cccc23)NC1=O (centres unmarked) [Compound 893-52, 4-(7-chloro-1H-indol-3-ylmethyl)-1-methyl-imidazolidin-2-one]	> 10
CN1C(=O)NC(Cc2c[nH]c3c(Cl)cc(Cl)cc23)C1=O (centres unmarked) [Compound 893-33]	> 10
O=C1NC(Cc2c[nH]c3c(Cl)cccc23)CO1 (centres unmarked) [Compound 893-51, 4-(7-chloro-1H-indol-3-ylmethyl)-oxazolidin-2-one]	> 10
CN1C(=O)NC(Cc2c[nH]c3c(Cl)c(Cl)ccc23)C1=O (centres unmarked) [Compound 893-50]	> 10
CN1C(=O)C(Cc2c[nH]c3c(Cl)cccc23)N(C)C1=O (centres unmarked) [Compound 893-36, 5-(7-Chloro-1H-indol-3-ylmethyl)-1,3-dimethyl-imidazolidine-2,4-dione]	> 10
COc1cccc2c(CC3NC(=O)N(C)C3=O)c[nH]c12 (centres unmarked) [Compound 893-25]	0.229
CCN1C(=O)NC(Cc2c[nH]c3c(Cl)cccc23)C1=O (centres unmarked) [Compound 893-34]	0.154
CN1C(=O)OC(Cc2c[nH]c3c(Cl)cccc23)C1=O (centres unmarked) [Compound 893-53, 5-(7-chloro-1H-indol-3-ylmethyl)-3-methyl-oxazolidine-2,4-dione]	0.359
CN1C(=O)N[C@H](Cc2c[nH]c3c(Cl)cccc23)C1=O [Compound 893-32]	0.078
CC(C)N1C(=O)NC(Cc2c[nH]c3c(Cl)cccc23)C1=O (centres unmarked) [Compound 893-44]	> 10
CN1C(=O)NC(Cc2c[nH]c3c(F)cccc23)C1=O (centres unmarked) [Compound 893-28]	0.324
COCCOc1cccc2c(CC3NC(=O)N(C)C3=O)c[nH]c12 (centres unmarked) [Compound 893-41]	> 10
CN1C(=O)NC(Cc2c[nH]c3ccccc23)C1=O (centres unmarked) [Compound 893-22, 5-(1H-Indol-3-ylmethyl)-3-methylimidazolidine-2,4-dione]	0.439
Cc1[nH]c2c(Cl)cccc2c1CC1NC(=O)N(C)C1=O (centres unmarked) [Compound 893-43]	> 10
CN1C(=O)NC(Cc2c[nH]c3c(OCc4ccccc4)cccc23)C1=O (centres unmarked) [Compound 893-42]	> 10
CN1C(=O)NC(Cc2cn(C)c3c(Cl)cccc23)C1=O (centres unmarked) [Compound 893-37, 5-(7-Chloro-1-methyl-1H-indol-3-ylmethyl)-3-methyl-imidazolidine-2,4-dione]	1.8
CN1C(=O)NC(Cc2csc3ccccc23)C1=O (racemic) [Compound 893-39, 5-benzo[b]thiophen-3-ylmethyl-3-methyl-imidazolidine-2,4-dione]	5.4

tested on: human B cell line U-937; experiment: Library screen for inhibition of cell death induced by TNF-α in the presence of zVAD; type: cell-based; details: U-937 cells
From the text: as §1
Compound libraries were screened for inhibition of cell death induced by TNF-α in the presence of zVAD in human B cell line U-937.

SMILES	inhibition of cell death induced by TNF-α in the presence of zVAD
CN1C(=O)C(Cc2c[nH]c3ccccc23)NC1=S (centres unmarked) [Compound 1]	inhibitor of necrosis

tested on: not given; experiment: not given; details: not given

melting point [°C]	SMILES
166 to 168	CN1C(=O)C(Cc2c[nH]c3ccc(O)cc23)NC1=S (centres unmarked) [Compound 893-07, 5-(5-Hydroxy-1H-Indol-3-ylmethyl)-3-methyl-2-thioxo-imidazolidin-4-one]
126 to 129	CN1C(=O)C(Cc2c[nH]c3cc(F)ccc23)NC1=S (centres unmarked) [Compound 893-05, 5-(6-Fluoro-1H-Indol-3-ylmethyl)-3-methyl-2-thioxo-imidazolidin-4-one]
229 to 232	O=C1NC(=O)C(Cc2c[nH]c3ccccc23)N1 (centres unmarked) (as salt: potassium)
242 to 245	CN1C(=O)C(Cc2c[nH]c3c(Cl)cc(S(C)(=O)=O)cc23)NC1=S (centres unmarked) [Compound 893-16, 5-(7-Chloro-5-methanesulfonyl-1H-indol-3-ylmethyl)-3-methyl-2-thioxo-imidazolidin-4-one]
181 to 185	COc1ccc2[nH]cc(CC3NC(=S)N(C)C3=O)c2c1 (centres unmarked) [Compound 893-06, 5-(5-Methoxy-1H-Indol-3-ylmethyl)-3-methyl-2-thioxo-imidazolidin-4-one]
230 to 233	CN1C(=O)C(Cc2c[nH]c3c(Br)cccc23)NC1=S (centres unmarked) [Compound 893-12, 5-(7-Bromo-1H-indol-3-ylmethyl)-3-methyl-2-thioxo-imidazolidin-4-one]
179 to 182	CN1C(=O)C(C)(Cc2c[nH]c3ccccc23)NC1=S (centres unmarked) [Compound 893-02, 5-(1H-Indol-3-ylmethyl)-3,5-dimethyl-2-thioxo-imidazolidin-4-one]
132 to 135	CN1C(=O)C(Cc2c[nH]c3ccccc23)N(C)C1=S (centres unmarked) [Compound 893-03, 5-(1H-Indol-3-ylmethyl)-1,3-dimethyl-2-thioxo-imidazolidin-4-one]
217 to 220	CN1C(=O)C(Cc2c[nH]c3c(F)cccc23)NC1=S (centres unmarked) [Compound 893-09, 5-(7-Fluoro-1H-Indol-3-ylmethyl)-3-methyl-2-thioxo-imidazolidin-4-one]
219 to 222	COc1cccc2c(CC3NC(=S)N(C)C3=O)c[nH]c12 (centres unmarked) [Compound 893-13, 5-(7-Methoxy-1H-indol-3-ylmethyl)-3-methyl-2-thioxo-imidazolidin-4-one]
155 to 157	CN1C(=O)C(Cc2cn(C)c3ccccc23)NC1=S (centres unmarked) [Compound 893-08, 3-Methyl-5-(1-methyl-1H-Indol-3-ylmethyl)-2-thioxo-imidazolidin-4-one]
